In PMC6308302, “Identification of Pharmacokinetic Markers for Guanxin Danshen Drop Pills in Rats by Combination of Pharmacokinetics, Systems Pharmacology, and Pharmacodynamic Assays” (Frontiers in Pharmacology, 2018):
“Also recorded” adds a separate entry of the source. Marks after values point to notes of the source that are not given here.

Assays:
[1] = Stability tests in rat plasma (QC samples, HPLC-MS); settings: n=5
Excerpt: Accuracy and precision were expressed by relative error (RE) and coefficient of variance (RSD), respectively.

[2] = system: isoprenaline-induced MI in mice; experiment: In vivo anti-MI study: isoprenaline-induced myocardial injury (ECG, H&E histology); settings: for Histopathology of heart tissue (H&E): 40 mg/kg p.o. for 7 days, isoprenaline-induced MI, 40 mg/kg; for ECG (lead II) findings on the fifth day of the trial: 40 mg/kg p.o., isoprenaline 5 mg/kg on days 4 and 5
[3] = Multiple component PK study in rat plasma after p.o. GDDP (HPLC-MS); settings: for determination in rat plasma at the planned successive PK time points / detection in rat plasma: GDDP 0.8 g/kg p.o.; for determination in rat plasma at the planned successive PK time points: 5, 10, 15, 30, 45, 60, and 120 min, LOQ 1.0–1.4 ng/mL; for detection in rat plasma: at 5, 10, 15, 30, 45, or 60 min, LOD 0.5–0.7 ng/mL; for AUC(0-inf) / AUC(0-t) / MRT inf / MRT last / Tmax / Cmax / half-life: Sprague-Dawley, rat, plasma, po
[4] = Aqueous solubility test (vortexing in water); format: physicochemical
Experimental: Aqueous solubility (S) test of the 17 ingredients was performed by vortexing 10 mg of each ingredient in […] water in a test tube at ambient temperature and 1 atm. After vortexing for 5 min, if the solution is clear, the tested object will be considered as soluble in water. In silico assessment of the physicochemical properties governing permeation and intestinal absorption was carried out for the 17 ingredients studied. Theory aqueous solubility (S) was calculated with ALOGPS 2.1 online software via the Virtual Computational Chemistry Laboratory service (Chemoinformatics Group, Neuherberg, Germany) (VCCLAB^1). The octanol–water partition coefficient (cLogP), the total hydrogen bond count (donors and acceptors), and topological polar surface area (TPSA) were determined using the Molinspiration Property Calculator (Molinspiration Cheminformatics, Bratislava, Slovak Republic^2). Lipinski’s rule of 5 was used to predict the permeability of the compound ([Lipinski et al., 2001]).

Caco-2 cell monolayers = settings: ref Lu et al., 2008, Liu et al., 2009, Hu et al., 2014, Bowles et al., 2017, cited from earlier work; for Papp(apical→basolateral) / Papp(basolateral→apical): Caco-2 cell monolayers, from literature; for apparent permeability in Caco-2 cell monolayers: previous results
[5] = 24h in auto-sampler vials, spiked 2 ng/mL
[6] = 24h in auto-sampler vials, spiked 400 ng/mL
[7] = 24h in auto-sampler vials, spiked 1600 ng/mL
[8] = Placing plasma for 6h at 4°C, spiked 2 ng/mL
[9] = Placing plasma for 6h at 4°C, spiked 400 ng/mL
[10] = Placing plasma for 6h at 4°C, spiked 1600 ng/mL
[11] = three freeze-thaw cycles, rat plasma, spiked 2 ng/mL
[12] = three freeze-thaw cycles, rat plasma, spiked 400 ng/mL
[13] = three freeze-thaw cycles, rat plasma, spiked 1600 ng/mL
[14] = 0.4 g/kg, Cmax, rat plasma, GDDP 0.4 g/kg p.o. (Low dose group), n=3
[15] = 0.4 g/kg, t1/2 β, rat plasma, GDDP 0.4 g/kg p.o. (Low dose group), n=3
[16] = 0.8 g/kg, Cmax (high / low plasma drug concentrations), rats, GDDP 0.4 and 0.8 g/kg p.o., classification
[17] = 0.8 g/kg, Cmax, rat plasma, GDDP 0.8 g/kg p.o. (High dose group), n=3
[18] = 0.8 g/kg, t1/2 β (fast / slow elimination type), rats, GDDP 0.4 and 0.8 g/kg p.o., classification
[19] = 0.8 g/kg, t1/2 β, rat plasma, GDDP 0.8 g/kg p.o. (High dose group), n=3
[20] = rat plasma, GDDP 0.4 g/kg p.o. (Low dose group), n=3
[21] = rat plasma, GDDP 0.8 g/kg p.o. (High dose group), n=3

## Cc1coc2c1C(=O)C(=O)c1c-2ccc2c(C)cccc12 [TS I, tanshinone I]
[1]; [5]
  Stability: Measured: 2.02 ± 0.32 ng/mL
  Stability: RE: 0.78%
[1]; [6]
  Stability: Measured: 470.56 ± 54.19 ng/mL
  Stability: RE: 17.64%
[1]; [7]
  Stability: Measured: 1562.58 ± 145.90 ng/mL
  Stability: RE: -2.34%
[1]; [8]
  Stability: Measured: 2.22 ± 0.30 ng/mL
  Stability: RE: 10.90%
[1]; [9]
  Stability: Measured: 469.39 ± 24.45 ng/mL
  Stability: RE: 17.35%
[1]; [10]
  Stability: Measured: 1771.82 ± 333.46 ng/mL
  Stability: RE: 10.74%
[1]; [11]
  Stability: Measured: 2.09 ± 0.20 ng/mL
  Stability: RE: 4.39%
[1]; [12]
  Stability: Measured: 459.00 ± 25.68 ng/mL
  Stability: RE: 14.75%
[1]; [13]
  Stability: Measured: 1482.38 ± 283.06 ng/mL
  Stability: RE: -7.32%
[2]
  Histopathology of heart tissue (H&E): myocardial lysis, architecture disorder, and loss of striations in heart tissue; also recorded: myocardial lysis, and architecture disorder, and loss of striations in heart tissue
  ECG (lead II) findings on the fifth day of the trial: T waves reversed or decreased
[3]
  determination in rat plasma at the planned successive PK time points: could be determined
  detection in rat plasma: could be detected
[3]; 0.4 g/kg
  AUC(0-inf): 125 ± 115 ng·h/mL
  AUC(0-t): 63 ± 49.5 ng·h/mL
  MRT inf: 27.3 ± 10.6 h
  MRT last: 9.93 ± 0.87 h
  Tmax: 1.25 ± 1.06 h
[3]; [14]
  Cmax: 6.1 ± 3.08 ng/mL
[3]; [15]
  half-life: 16.4 ± 8.87 h
[3]; 0.8 g/kg
  AUC(0-inf): 45.1 ± 20.6 ng·h/mL
  AUC(0-t): 40.1 ± 17.3 ng·h/mL
  MRT inf: 7.72 ± 2.17 h
  MRT last: 4.27 ± 1.62 h
  Tmax: 1.25 ± 0.66 h
[3]; [16]
  Cmax: < 10 ng/mL
[3]; [17]
  Cmax: 8.59 ± 3.18 ng/mL
[3]; [18]
  half-life: > 2.6 h
[3]; [19]
  half-life: 11.7 ± 4.78 h
[3]; [20]
  Cltot: 45.3 ± 41.8 mL/min/kg
[3]; [21]
  Cltot: 163 ± 59.8 mL/min/kg
[4]; water at 25 °C
  solubility in water (in words): insoluble
Caco-2 cell monolayers
  Papp(apical→basolateral): 0.95^d ×10^-6 cm/s
  Papp(basolateral→apical): 11.27^d ×10^-6 cm/s
  apparent permeability in Caco-2 cell monolayers: ≥ 10^-6 cm/s

## CC(C)=CCC[C@](C)(O[C@@H]1O[C@H](CO)[C@@H](O)[C@H](O)[C@H]1O)[C@H]1CC[C@]2(C)[C@@H]1[C@H](O)C[C@@H]1[C@@]3(C)CC[C@H](O)C(C)(C)[C@@H]3[C@@H](O[C@@H]3O[C@H](CO)[C@@H](O)[C@H](O)[C@H]3O[C@@H]3OC[C@@H](O)[C@H](O)[C@H]3O)C[C@]12C [R1, notoginsenoside R1]
[1]; [5]
  Stability: Measured: 1.89 ± 0.51 ng/mL
  Stability: RE: -5.63%
[1]; [6]
  Stability: Measured: 395.76 ± 7.32 ng/mL
  Stability: RE: -1.06%
[1]; [7]
  Stability: Measured: 1619.10 ± 82.22 ng/mL
  Stability: RE: 1.19%
[1]; [8]
  Stability: Measured: 1.75 ± 0.34 ng/mL
  Stability: RE: -12.56%
[1]; [9]
  Stability: Measured: 387.55 ± 18.40 ng/mL
  Stability: RE: -3.11%
[1]; [10]
  Stability: Measured: 1698.54 ± 105.94 ng/mL
  Stability: RE: 6.16%
[1]; [11]
  Stability: Measured: 2.15 ± 0.21 ng/mL
  Stability: RE: 7.54%
[1]; [12]
  Stability: Measured: 395.28 ± 15.09 ng/mL
  Stability: RE: -1.18%
[1]; [13]
  Stability: Measured: 1784.04 ± 71.20 ng/mL
  Stability: RE: 11.50%
[2]
  Histopathology of heart tissue (H&E): remarkably severe histological damage with extensive myocardial lysis and architecture wrecking; also recorded: extremely severe histological damage with extensive myocardial lysis and architecture wrecking
  ECG (lead II) findings on the fifth day of the trial: T waves reversed or decreased
[3]
  determination in rat plasma at the planned successive PK time points: could be determined
  detection in rat plasma: could be detected
[3]; 0.4 g/kg
  AUC(0-inf): 171 ± 92.6 ng·h/mL
  AUC(0-t): 146 ± 58.9 ng·h/mL
  MRT inf: 1.31 ± 0.11 h
  MRT last: 1.1 ± 0.12 h
  Tmax: 0.51 ± 0.7 h
[3]; [14]
  Cmax: 167 ± 48 ng/mL
[3]; [15]
  half-life: 0.57 h
[3]; 0.8 g/kg
  AUC(0-inf): 168 ± 119 ng·h/mL
  AUC(0-t): 120 ± 117 ng·h/mL
  MRT inf: 1.92 ± 1.59 h
  MRT last: 0.89 ± 0.14 h
  Tmax: 0.75 h
[3]; [16]
  Cmax: > 20 ng/mL
[3]; [17]
  Cmax: 259 ± 342 ng/mL
[3]; [18]
  half-life: < 2 h
[3]; [19]
  half-life: 0.45 h
[3]; [20]
  Cltot: 55.7 ± 30.2 mL/min/kg
[3]; [21]
  Cltot: 181.5 ± 187.8 mL/min/kg
[4]; thermodynamic from solid, determined, water, 25 °C, 1 atm
  solubility at 5 min: > 10000 µg/mL
Caco-2 cell monolayers
  Papp(apical→basolateral): > 0.1^c ×10^-6 cm/s
  Papp(basolateral→apical): > 0.1^c ×10^-6 cm/s
  apparent permeability in Caco-2 cell monolayers: > 10^-7 cm/s
